Values quoted from earlier work as cited in patent US20240261419A1, “[…] PSILOCIN CONJUGATES FOR TREATMENT OF MENTAL ILLNESSES” (LONDON PHARMACEUTICALS AND RESEARCH CORPORATION, priority 2021, published 2024).
Read-outs that look alike come from different tables or passages of the source.

Details: background comparison of pharmacokinetic profiles

## C=C(C)[C@@H]1CCC(C)=C[C@H]1c1c(O)cc(CCCCC)cc1O [CBD, cannabidiol]
CBD
  time to reach maximum plasma level: 4 to 6 h

## CN(C)CCc1c[nH]c2cccc(OP(=O)(O)O)c12 [psilocy bin, psilocybin]
psilocybin
  time to reach maximum plasma level: 1.5 h
